This is an account of results in patent US20250257041A1, “INDUCERS OF INTEGRATED STRESS RESPONSE TO TREAT CANCER” (The Board of Regents of The University of Texas System, priority 2022, published 2025).

Like-named read-outs stand apart in the source and are kept apart here.

One assay has as its system HCT116 GCN2KO. Description: Proliferation of HCT116 cells with GCN2 knocked out (CRISPR), Cell TiterGlo. In kind it is cell-based, human. The note with it: Homo sapiens, HCT-116; HCT116 cells with GCN2 knocked out using CRISPR; read-out: HCT116 IC50 (uM) HCT116 − GCN2KO. As for the experimental part:
Briefly, compounds were tested for their effect on proliferation of HCT116 colorectal cell lines using Cell TiterGlo (Promega). Each compound was tested in a 10-point dose response experiment in triplicate. Multiple values in the column titled HCT116 WT reflect separate independent experiments. The three columns titled “HCT116 WT (repeat)”, “HCT116-CGN2KO” and “HCT116 WT+ISRIB” provide data for selected compounds that were tested simultaneously under three conditions. The HCT116 WT column lists IC50 against the wild type HCT116 colorectal cancer cell line. The HCT116-CGN2KO lists IC50 data for cells in which one component of the integrated stress response, GCN2, has been knocked out using CRISPR technology.
(In ATP-based viability assays light output follows the ATP content of the culture.)

The test system of the next assay is HCT116 WT. Description: Proliferation of HCT116 colorectal cell line, Cell TiterGlo. In kind it is cell-based, human. Put shortly:
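Cell viability by CellTiter-Glo in parental HCT116, in a GCN2-knockout line, and in parental cells co-treated with ISRIB. IC50 from triplicate 10-point titrations; repeated values come from separate runs.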

[1] abbreviates: Homo sapiens, HCT-116, wild type HCT116, 10-point dose response in triplicate, multiple values = separate independent experiments, read-out: HCT116 IC50 (uM) HCT116 WT.
Where [2] appears, read: Homo sapiens, HCT-116, wild type HCT116, tested simultaneously with GCN2KO and +ISRIB, read-out: HCT116 IC50 (uM) HCT116 WT (repeat).
The mark [3] stands for this setting: wild type HCT116, compound plus 10 nM of ISRIB, read-out: HCT116 IC50 (uM) HCT116 WT + ISRIB.

As usually defined, the IC50 is the point on the concentration scale where inhibition reaches its midpoint. On to `COc1ccccc1C(=O)Nc1ccc(-c2cc(NC(=O)c3ccccc3)n(C)n2)cc1` [SW389001, N-(4-(5-Benzamido-1-methyl-1H-pyrazol-3-yl)phenyl)-2-methoxybenzamide], for which the half-maximal inhibitory concentration (IC50) came to 6.44 µM in the assay with HCT116 GCN2KO, 0.31 µM with HCT116 WT (setting [1]), 0.84 µM with HCT116 WT (setting [2]) and 7 µM in the assay with HCT116 WT (setting [3]).

Turning to `Cn1nc(-c2ccc(NC(=O)c3ccc(C(=O)c4ccccc4)cc3)cc2)cc1NC(=O)c1ccccc1` [SW389002, N-(4-(5-Benzamido-1-methyl-1H-pyrazol-3-yl)phenyl)-4-benzoylbenzamide], the IC50 came out at 31.9 µM in the assay with HCT116 GCN2KO, 7.1 µM in the assay on HCT116 WT (setting [1]), 26.4 µM in the assay on HCT116 WT (setting [2]) and 46.3 µM with HCT116 WT (setting [3]).

For `Cn1nc(-c2ccc(NC(=O)c3cccc(C(=O)c4ccccc4)c3)cc2)cc1NC(=O)c1ccccc1` [SW389004, N-(4-(5-Benzamido-1-methyl-1H-pyrazol-3-yl)phenyl)-3-benzoylbenzamide], the IC50 with HCT116 GCN2KO was determined as 7.75 µM; with HCT116 WT (setting [1]), 5.7 µM; with HCT116 WT (setting [2]), 7.47 µM; in the assay on HCT116 WT (setting [3]), 7.22 µM.

Regarding `C#Cc1cccc(C(=O)Nc2cc(-c3ccc(NC(=O)c4ccccc4)cc3)nn2C)c1` [SW389005, N-(3-(4-Benzamidophenyl)-1-methyl-1H-pyrazol-5-yl)-3-ethynylbenzamide], the IC50 stood at 2.97 µM with HCT116 GCN2KO, 0.313 µM with HCT116 WT (setting [1]), 0.33 µM with HCT116 WT (setting [2]) and 2.96 µM in the assay on HCT116 WT (setting [3]).

On to `COc1ccccc1C(=O)Nc1cc(-c2ccc(NC(=O)c3ccccc3)cc2)nn1C` [SW389006, N-(3-(4-Benzamidophenyl)-1-methyl-1H-pyrazol-5-yl)-2-methoxybenzamide], for which the IC50 amounted to 2.34 µM with HCT116 GCN2KO, 1.23 µM with HCT116 WT (setting [1]), 0.82 µM with HCT116 WT (setting [2]) and 2.4 µM in the assay with HCT116 WT (setting [3]).

Take `C#Cc1ccc(C(=O)Nc2ccc(-c3cc(NC(=O)c4ccccc4)n(C)n3)cc2)cc1` [SW389007, N-(4-(5-Benzamido-1-methyl-1H-pyrazol-3-yl)phenyl)-4-ethynylbenzamide]: the IC50 is 5.22 µM in the assay with HCT116 GCN2KO, 2 µM in the assay with HCT116 WT (setting [1]), 4.8 µM with HCT116 WT (setting [2]) and 4.42 µM with HCT116 WT (setting [3]).

In the case of `C#Cc1ccc(C(=O)Nc2cc(-c3ccc(NC(=O)c4ccccc4)cc3)nn2C)cc1` [SW389008, N-(3-(4-Benzamidophenyl)-1-methyl-1H-pyrazol-5-yl)-4-ethynylbenzamide], the half-inhibitory concentration (IC50) in the assay with HCT116 GCN2KO was not below 50 µM; in the assay with HCT116 WT (setting [1]), more than 50 µM; in the assay on HCT116 WT (setting [2]), not below 50 µM.

As for `C#CCOc1ccc(C(=O)c2ccc(C(=O)Nc3ccc(-c4cc(NC(=O)c5ccccc5)n(C)n4)cc3)cc2)cc1` [SW389010, N-(4-(5-Benzamido-1-methyl-1H-pyrazol-3-yl)phenyl)-4-(4-(prop-2-yn-1-yloxy)benzoyl)benzamide], the values for the 50% inhibitory concentration (IC50) in the assay with HCT116 GCN2KO, in the assay with HCT116 WT (setting [1]) and in the assay with HCT116 WT (setting [2]) were 41.1 µM, 20 µM and 43.1 µM, respectively.

For `C#CCOc1ccc(C(=O)c2ccc(C(=O)Nc3cc(-c4ccc(NC(=O)c5ccccc5)cc4)nn3C)cc2)cc1` [SW389012, N-(3-(4-Benzamidophenyl)-1-methyl-1H-pyrazol-5-yl)-4-(4-(prop-2-yn-1-yloxy)benzoyl)benzamide], the half-inhibitory concentration (IC50) with HCT116 GCN2KO was 19.2 µM; with HCT116 WT (setting [1]), more than 50 µM; in the assay with HCT116 WT (setting [2]) it was 7.01 µM.

As for `C#Cc1cccc(C(=O)Nc2ccc(-c3cc(NC(=O)c4ccccc4)n(C)n3)cc2)c1` [SW389013, N-(4-(5-Benzamido-1-methyl-1H-pyrazol-3-yl)phenyl)-3-ethynylbenzamide], the IC50 with HCT116 GCN2KO is 15.8 µM; with HCT116 WT (setting [1]), 2.79 µM; in the assay on HCT116 WT (setting [2]) it was 4.21 µM; in the assay on HCT116 WT (setting [3]), 19.8 µM.

Regarding `C#CCOc1ccc(C(=O)c2cccc(C(=O)Nc3cc(-c4ccc(NC(=O)c5ccccc5)cc4)nn3C)c2)cc1` [SW389152, N-(3-(4-Benzamidophenyl)-1-methyl-1H-pyrazol-5-yl)-3-(4-(prop-2-yn-1-yloxy)benzoyl)benzamide], the IC50 with HCT116 GCN2KO turned out to be 0.65 µM; with HCT116 WT (setting [1]) it was 0.305 µM; in the assay with HCT116 WT (setting [2]), 0.31 µM; with HCT116 WT (setting [3]) it was 0.71 µM.

Turning to `COC(=O)c1cccc(C(=O)Nc2cc(-c3ccc(NC(=O)c4ccccc4)cc3)nn2C)c1` [SW389153, Methyl 3-((3-(4-benzamidophenyl)-1-methyl-1H-pyrazol-5-yl)carbamoyl)benzoate], the concentration for half-maximal inhibition (IC50) is 1.31 µM with HCT116 GCN2KO, 0.208 µM with HCT116 WT (setting [1]), 0.2 µM in the assay with HCT116 WT (setting [2]) and 1.73 µM in the assay on HCT116 WT (setting [3]).

As for `Cn1nc(-c2ccc(NC(=O)c3ccccc3)cc2)cc1NC(=O)c1cccc(C(=O)c2ccccc2)c1` [SW389154, N-(3-(4-Benzamidophenyl)-1-methyl-1H-pyrazol-5-yl)-3-benzoylbenzamide], the IC50 in the assay on HCT116 GCN2KO stood at 0.53 µM; with HCT116 WT (setting [1]), 0.195 µM; with HCT116 WT (setting [2]), 0.18 µM; with HCT116 WT (setting [3]), 0.77 µM.

In the case of `Cn1nc(-c2ccc(NC(=O)c3ccccc3Cl)cc2)cc1NC(=O)c1cccc(NC(=O)OC(C)(C)C)c1` [SW394897-1, tert-butyl (3-((3-(4-(2-chlorobenzamido)phenyl)-1-methyl-1H-pyrazol-5-yl)carbamoyl)phenyl)carbamate], the IC50 with HCT116 WT (setting [1]) was found to be 0.02 µM.

In the case of `Cn1nc(-c2ccc(NC(=O)c3ccccc3Cl)cc2)cc1NC(=O)c1cccc(CN)c1` [SW394966, N-(4-(5-(3-(aminomethyl)benzamido)-1-methyl-1H-pyrazol-3-yl)phenyl)-2-chlorobenzamide], the half-inhibitory concentration (IC50) in the assay with HCT116 WT (setting [1]) was found to be 0.055 µM.

Consider `Cn1nc(-c2ccc(NC(=O)c3cc(NC(=O)OC(C)(C)C)ccc3Cl)cc2)cc1NC(=O)c1ccccc1` [SW394967, tert-butyl (3-((4-(5-benzamido-1-methyl-1H-pyrazol-3-yl)phenyl)carbamoyl)-4-chlorophenyl)carbamate], for which the IC50 with HCT116 WT (setting [1]) turned out to be 0.541 µM.

With `Cn1nc(-c2ccc(NC(=O)c3ccccc3Cl)cc2)cc1NC(=O)c1cccc(OCCNC(=O)OC(C)(C)C)c1` [SW394968, tert-butyl (2-(3-((3-(4-(2-chlorobenzamido)phenyl)-1-methyl-1H-pyrazol-5-yl)carbamoyl)phenoxy)ethyl)carbamate], in the assay on HCT116 WT (setting [1]), the IC50 is 0.062 µM.

Turning to `Cn1nc(-c2ccc(NC(=O)c3ccccc3Cl)cc2)cc1NC(=O)C1CC2CCC1CC2` (stereo not drawn) [SW394969, N-(3-(4-(2-chlorobenzamido)phenyl)-1-methyl-1H-pyrazol-5-yl)bicyclo[2.2.2]octane-2-carboxamide], the IC50 with HCT116 WT (setting [1]) was 0.03 µM.

On to `Cn1nc(-c2ccc(NC(=O)c3ccccc3Cl)cc2)cc1NC(=O)c1cccc(OCCN)c1` [SW394970, N-(4-(5-(3-(2-aminoethoxy)benzamido)-1-methyl-1H-pyrazol-3-yl)phenyl)-2-chlorobenzamide], for which, in the assay with HCT116 WT (setting [1]), the IC50 is 0.05 µM.

Take `Cn1nc(-c2ccc(NC(=O)c3ccccc3Cl)cc2)cc1NC(=O)c1cccc(OCCNc2ccc([N+](=O)[O-])c3nonc23)c1` [SW394971, 2-Chloro-N-(4-(1-methyl-5-(3-(2-((7-nitrobenzo[c][1,2,5]oxadiazol-4-yl)amino)ethoxy)benz-amido)-1H-pyrazol-3-yl)phenyl)benzamide]: the concentration for half-maximal inhibition (IC50) in the assay with HCT116 WT (setting [1]) was found to be 0.02 µM.

Turning to `Cn1nc(-c2ccc(NC(=O)c3ccccc3Cl)cc2)cc1NC(=O)c1cccc(OCCNC(=S)Nc2ccc(-c3c4ccc(=O)cc-4oc4cc(O)ccc34)c(C(=O)O)c2)c1` [SW394972, 5-(3-(2-(3-((3-(4-(2-chlorobenzamido)phenyl)-1-methyl-1H-pyrazol-5-yl)carbamoyl)phenoxy)ethyl)thioureido)-2-(6-hydroxy-3-oxo-3H-xanthen-9-yl)benzoic acid], the IC50 with HCT116 WT (setting [1]) is 1.3 µM.
